Experimental data reported in patent publication US10280170B2, “Substituted 4,5,6,7-tetrahydro-pyrazolo[1,5-a]pyrazine derivatives and 5,6,7,8-tetrahydro-4H-pyrazolo[1,5-a][1,4]diazepine derivatives as Ros1 inhibitors” (Janssen Pharmaceutica NV, priority 2014, dated 2019).
Read-outs that look alike come from different tables or passages of the source.

Tests used:
[1] = biological target: Ba/F3 cells containing Ros1 with a mutation at the gatekeeper residue (L2026M) (Homo sapiens, UniProt P08922, L2026M, cells depend on it, form not given); assay: Ba/F3-Ros1 cell proliferation assay, L2026M gatekeeper mutant; assay type: cell-based, murine; conditions: without IL-3
Ba/F3 cells containing Ros1 with a mutation at the gatekeeper residue (L2026M), sequence (P08922 whole entry L2026M, form open): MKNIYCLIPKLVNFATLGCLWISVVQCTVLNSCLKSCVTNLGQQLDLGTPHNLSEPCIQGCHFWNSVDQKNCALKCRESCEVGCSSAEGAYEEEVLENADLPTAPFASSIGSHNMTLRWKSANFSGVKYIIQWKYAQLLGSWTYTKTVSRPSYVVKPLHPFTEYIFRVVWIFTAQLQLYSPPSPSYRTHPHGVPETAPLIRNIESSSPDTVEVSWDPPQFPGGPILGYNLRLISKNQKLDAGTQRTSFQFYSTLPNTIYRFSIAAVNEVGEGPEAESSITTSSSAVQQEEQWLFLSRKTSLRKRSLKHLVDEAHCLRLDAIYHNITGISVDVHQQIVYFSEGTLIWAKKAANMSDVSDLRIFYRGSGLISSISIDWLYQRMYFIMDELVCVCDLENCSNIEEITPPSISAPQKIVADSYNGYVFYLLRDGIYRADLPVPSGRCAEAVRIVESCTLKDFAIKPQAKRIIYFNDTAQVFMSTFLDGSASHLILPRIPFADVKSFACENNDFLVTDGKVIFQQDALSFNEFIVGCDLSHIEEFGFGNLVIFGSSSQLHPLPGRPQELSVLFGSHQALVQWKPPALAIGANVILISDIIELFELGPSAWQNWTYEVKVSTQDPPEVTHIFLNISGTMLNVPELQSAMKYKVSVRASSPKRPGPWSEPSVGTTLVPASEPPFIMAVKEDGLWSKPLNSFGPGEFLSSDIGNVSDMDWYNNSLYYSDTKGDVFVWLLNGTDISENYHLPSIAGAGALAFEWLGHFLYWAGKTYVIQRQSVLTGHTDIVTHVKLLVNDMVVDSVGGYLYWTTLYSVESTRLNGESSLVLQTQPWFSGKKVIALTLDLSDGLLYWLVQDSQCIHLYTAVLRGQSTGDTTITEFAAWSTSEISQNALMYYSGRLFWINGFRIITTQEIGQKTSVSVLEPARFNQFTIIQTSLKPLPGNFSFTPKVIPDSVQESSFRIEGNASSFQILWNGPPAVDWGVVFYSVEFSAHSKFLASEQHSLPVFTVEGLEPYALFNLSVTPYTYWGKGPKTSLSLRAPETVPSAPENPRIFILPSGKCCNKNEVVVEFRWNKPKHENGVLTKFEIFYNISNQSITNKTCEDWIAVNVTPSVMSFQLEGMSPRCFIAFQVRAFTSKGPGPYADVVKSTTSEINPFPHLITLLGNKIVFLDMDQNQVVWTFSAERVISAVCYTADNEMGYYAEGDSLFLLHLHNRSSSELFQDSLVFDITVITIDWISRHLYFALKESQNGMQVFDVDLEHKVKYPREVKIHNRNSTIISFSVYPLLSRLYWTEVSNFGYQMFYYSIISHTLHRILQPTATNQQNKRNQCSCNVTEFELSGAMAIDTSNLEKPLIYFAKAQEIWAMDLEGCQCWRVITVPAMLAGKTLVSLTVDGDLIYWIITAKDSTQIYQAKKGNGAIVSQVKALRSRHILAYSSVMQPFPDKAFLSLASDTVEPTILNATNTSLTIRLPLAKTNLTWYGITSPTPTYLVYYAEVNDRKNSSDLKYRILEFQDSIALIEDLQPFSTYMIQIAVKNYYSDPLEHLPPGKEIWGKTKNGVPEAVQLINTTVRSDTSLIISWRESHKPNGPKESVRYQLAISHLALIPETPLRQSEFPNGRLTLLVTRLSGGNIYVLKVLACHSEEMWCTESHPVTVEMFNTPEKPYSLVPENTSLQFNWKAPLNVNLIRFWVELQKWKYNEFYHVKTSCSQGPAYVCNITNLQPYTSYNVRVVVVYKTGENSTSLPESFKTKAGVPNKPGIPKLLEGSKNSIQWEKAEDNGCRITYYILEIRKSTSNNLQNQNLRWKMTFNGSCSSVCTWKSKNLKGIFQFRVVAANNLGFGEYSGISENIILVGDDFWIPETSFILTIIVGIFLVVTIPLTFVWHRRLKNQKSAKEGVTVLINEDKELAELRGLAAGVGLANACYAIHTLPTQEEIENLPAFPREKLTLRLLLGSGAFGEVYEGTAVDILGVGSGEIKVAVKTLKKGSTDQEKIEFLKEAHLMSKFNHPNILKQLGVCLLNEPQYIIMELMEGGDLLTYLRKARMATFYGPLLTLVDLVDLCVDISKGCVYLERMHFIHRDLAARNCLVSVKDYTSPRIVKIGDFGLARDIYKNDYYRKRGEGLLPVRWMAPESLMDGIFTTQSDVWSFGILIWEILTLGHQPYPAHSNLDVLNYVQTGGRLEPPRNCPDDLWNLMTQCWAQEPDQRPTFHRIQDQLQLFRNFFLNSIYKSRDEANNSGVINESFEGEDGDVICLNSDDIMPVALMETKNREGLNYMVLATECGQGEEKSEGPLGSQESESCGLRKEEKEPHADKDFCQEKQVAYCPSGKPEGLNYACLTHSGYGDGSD
Summary of the method: (§1)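 Ba/F3 cells expressing wild-type, L2026M or G2032R Ros1 (20000 per well) were incubated with DMSO-solubilized compounds in phenol red-free RPMI-1640 with 10% FBS and 2 mM L-glutamine at 37 °C, 5% CO2 for 24 hours. Viability was then read by Alamar Blue fluorescence (ex 540/em 590 nm) after 4 h.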

[2] = biological target: T1, Ros1 enzyme (Homo sapiens, UniProt P08922); assay: Ros1 enzymatic assay; assay type: biochemical; conditions: Ros1 enzymatic assay; read-out: ROS1 pIC50 (converted)
T1 construct: 0.5 μg/ml Ros1 enzyme
T1 sequence (P08922 28-2347): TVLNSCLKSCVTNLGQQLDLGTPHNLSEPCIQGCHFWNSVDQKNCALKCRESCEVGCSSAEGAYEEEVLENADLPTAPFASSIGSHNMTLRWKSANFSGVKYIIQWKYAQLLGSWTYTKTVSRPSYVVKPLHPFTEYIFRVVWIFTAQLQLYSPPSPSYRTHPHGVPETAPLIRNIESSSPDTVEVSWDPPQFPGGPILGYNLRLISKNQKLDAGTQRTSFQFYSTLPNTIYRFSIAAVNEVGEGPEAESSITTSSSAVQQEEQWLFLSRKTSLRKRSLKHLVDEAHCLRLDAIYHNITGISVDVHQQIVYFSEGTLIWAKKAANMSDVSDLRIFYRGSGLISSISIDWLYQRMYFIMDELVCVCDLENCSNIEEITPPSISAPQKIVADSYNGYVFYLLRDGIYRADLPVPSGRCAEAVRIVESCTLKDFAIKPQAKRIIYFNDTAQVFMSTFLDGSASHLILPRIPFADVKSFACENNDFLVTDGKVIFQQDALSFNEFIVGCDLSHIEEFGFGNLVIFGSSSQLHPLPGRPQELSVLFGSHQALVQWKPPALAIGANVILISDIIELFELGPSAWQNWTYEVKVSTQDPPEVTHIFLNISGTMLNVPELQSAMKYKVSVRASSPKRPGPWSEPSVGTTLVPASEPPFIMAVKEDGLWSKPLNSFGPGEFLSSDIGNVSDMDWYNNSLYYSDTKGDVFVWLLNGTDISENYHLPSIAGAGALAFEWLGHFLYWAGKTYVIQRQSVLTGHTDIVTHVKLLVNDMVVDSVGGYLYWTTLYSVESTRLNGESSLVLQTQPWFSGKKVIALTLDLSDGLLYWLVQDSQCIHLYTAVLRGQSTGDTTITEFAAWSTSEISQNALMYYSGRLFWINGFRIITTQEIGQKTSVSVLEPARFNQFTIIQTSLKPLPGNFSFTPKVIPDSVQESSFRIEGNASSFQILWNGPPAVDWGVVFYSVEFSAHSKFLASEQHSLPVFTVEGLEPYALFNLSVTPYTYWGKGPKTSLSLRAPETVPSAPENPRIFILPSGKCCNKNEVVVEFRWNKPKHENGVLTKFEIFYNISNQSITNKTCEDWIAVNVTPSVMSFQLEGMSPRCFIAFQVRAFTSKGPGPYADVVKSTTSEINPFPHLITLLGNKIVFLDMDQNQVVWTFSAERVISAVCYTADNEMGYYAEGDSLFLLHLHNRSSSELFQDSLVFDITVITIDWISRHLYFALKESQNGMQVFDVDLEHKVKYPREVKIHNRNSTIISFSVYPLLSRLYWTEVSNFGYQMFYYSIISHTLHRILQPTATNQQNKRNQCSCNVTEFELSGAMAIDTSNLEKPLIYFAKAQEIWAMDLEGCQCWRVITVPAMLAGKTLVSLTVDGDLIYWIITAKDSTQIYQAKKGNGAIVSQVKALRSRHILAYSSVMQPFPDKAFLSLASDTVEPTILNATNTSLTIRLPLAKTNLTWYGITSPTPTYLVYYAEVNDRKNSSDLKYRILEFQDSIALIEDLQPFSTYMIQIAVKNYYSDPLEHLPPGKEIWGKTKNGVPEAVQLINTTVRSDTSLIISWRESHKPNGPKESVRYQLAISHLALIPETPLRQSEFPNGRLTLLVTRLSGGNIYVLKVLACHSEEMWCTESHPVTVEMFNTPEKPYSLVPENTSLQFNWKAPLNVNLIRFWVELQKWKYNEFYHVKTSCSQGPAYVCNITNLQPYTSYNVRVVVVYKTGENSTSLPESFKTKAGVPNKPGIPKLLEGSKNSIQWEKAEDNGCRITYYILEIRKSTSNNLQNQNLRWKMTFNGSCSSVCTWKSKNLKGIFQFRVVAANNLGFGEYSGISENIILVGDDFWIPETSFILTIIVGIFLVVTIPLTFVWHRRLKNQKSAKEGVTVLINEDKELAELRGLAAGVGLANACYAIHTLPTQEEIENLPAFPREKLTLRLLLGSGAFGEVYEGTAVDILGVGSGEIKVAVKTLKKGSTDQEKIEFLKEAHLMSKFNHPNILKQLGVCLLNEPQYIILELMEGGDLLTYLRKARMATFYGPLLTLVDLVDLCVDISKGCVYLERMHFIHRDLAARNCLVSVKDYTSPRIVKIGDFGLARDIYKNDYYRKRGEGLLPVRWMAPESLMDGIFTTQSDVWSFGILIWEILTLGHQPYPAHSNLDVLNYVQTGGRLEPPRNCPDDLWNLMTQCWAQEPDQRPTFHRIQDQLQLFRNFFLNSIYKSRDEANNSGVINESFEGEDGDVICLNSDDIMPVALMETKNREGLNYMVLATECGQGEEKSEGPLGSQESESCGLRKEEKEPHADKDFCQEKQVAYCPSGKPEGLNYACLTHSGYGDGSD
Summary of the method: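 Peptide phosphorylation by Ros1 is measured by 33P transfer from 20 μM ATP (as prepared in substrate mix) over 2 h at ambient temperature, pH 7.5 with Mg2+.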

[3] = biological target: T2, Ba/F3 cells containing Ros1 wild-type protein (Homo sapiens, UniProt P08922, cells depend on it, form not given); assay: Ba/F3-Ros1 cell proliferation assay, wild-type Ros1; assay type: cell-based, murine; conditions: without IL-3
T2 construct: The background only speaks of 'a number of different unrelated proteins' and names SLC34A2-ROS1 for HCC78 cells
T2 sequence (P08922 whole entry, stated change not applied): as the sequence (P08922 whole entry L2026M, form open) above, with M2026L counted along it
Summary of the method: as §1

[4] = test system: Ba/F3 cells containing Ros1 wild-type protein + IL-3; assay: Ba/F3-Ros1 cell proliferation counter-screen, wild-type protein in the presence of 10 ng/ml murine IL-3; assay type: cell-based; conditions: Mus musculus, BaF3, 24 h, read-out: BaF3-ROS1 + IL3 pIC50 (converted)
Summary of the method: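 Proliferation of IL-3-supplemented (10 ng/ml, murine) Ba/F3 cells bearing wild-type Ros1 is measured after 24 h compound treatment. Alamar Blue conversion over 4 h gives fluorescence at 590 nm.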

[5] = test system: HCC78 non-small cell lung cancer cells; assay: HCC78 cell proliferation assay; assay type: cell-based; conditions: for EC50: Homo sapiens, HCC78, 96 h, read-out: HCC-78 PROL pEC50 (converted)
Summary of the method: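 HCC78 NSCLC cells (~1000/well) in RPMI-1640 with 10% FBS were treated 24 h after seeding and exposed to compound for 4 days at 37 °C. Viability was read by MTT, with absorbance at 538 nm after DMSO/glycine solubilization.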

[6] = counter-screen, wild-type, 10 ng/ml murine IL-3

| EC50 ([5]; HCC78 cells, 4 days, MTT) [nM] | HCC-78 PROL pEC50 ([5]; HCC78 cells, 4 days, MTT) | SMILES | Ba/F3 Ros1 L2026M (-IL-3) pIC50 [1] | melting point [°C] | IC50 [2] [nM] | BaF3-ROS1-IL3 pIC50 [3] | CC50 [4] [nM] | EC50 [5] [nM] | CC50 [4, 6] [nM] |
| --- | --- | --- | --- | --- | --- | --- | --- | --- | --- |
|  |  | CC(C)Cc1ccc(COc2ccc(-c3c(-c4ccncc4)nn4c3C(=O)N(CCO)CC4)cc2)cc1 [Compound 109] | 7.2 | 155 | 100 | 7.1 | > 10000 | 398 |  |
|  |  | CC(C)(O)c1ccc(COc2ccc(-c3c(-c4ccncc4)nn4c3C(=O)N(CCO)CC4)cc2)cc1 [Compound 115] | <5 | 193 | 1260 | 6.3 | > 10000 | 1580 |  |
|  |  | O=C1c2c(-c3ccc(OCc4ccc(OC(F)(F)F)cc4)cc3)c(-c3ccncc3)nn2CCN1CCO [Compound 117] | 6.9 | 134 | 126 | 7.0 | > 10000 | 251 |  |
|  |  | CC(C)(C#N)c1ccc(COc2ccc(-c3c(-c4ccncc4)nn4c3C(=O)N(CCO)CC4)cc2)cc1 [Compound 122] | 7.1 | 199 | 126 | 6.9 | > 10000 | 63.1 |  |
|  |  | N#CC1(c2ccc(COc3ccc(-c4c(-c5ccncc5)nn5c4C(=O)NCC5)cc3)cc2)CC1 [Compound 123] | 7.1 | 260 | 39.8 | 7.4 | > 10000 | 398 |  |
|  |  | COCC(C)(C)c1ccc(COc2ccc(-c3c(-c4ccncc4)nn4c3C(=O)NCC4)cc2)cc1 [Compound 126] | 6.6 | 212 | 200 | 6.9 | > 10000 | 1260 |  |
|  |  | O=C1c2c(-c3ccc(OCc4ccc(C5CC5)cc4)cc3)c(-c3ccncc3)nn2CCN1CCO [Compound 129] | 7.0 | 194 | 63.1 | 7.4 | > 10000 | 100 |  |
| 200 |  | CC(O)CN1CCn2nc(-c3ccncc3)c(-c3ccc(OCc4ccc(C5CC5)cc4)cc3)c2C1=O (stereo not drawn) [Compound 134] | 7.0 | 196 | 79.4 | 7.3 |  |  | > 10000 |
|  |  | O=C1c2c(-c3ccc(OCc4ccc(C5CC5)cc4F)cc3)c(-c3ccncc3)nn2CCN1CCO [Compound 136] | 6.6 | 183 | 63.1 | 7.1 | > 10000 | 316 |  |
|  |  | O=C1c2c(-c3ccc(OCc4ccc(C5CC5)c(F)c4)cc3)c(-c3ccncc3)nn2CCN1CCO [Compound 137] | 6.4 | 185 | 126 | 6.8 | > 10000 | 398 |  |
|  |  | O=C1c2c(-c3ccc(OCc4ccc(C5CC5)nc4)cc3)c(-c3ccncc3)nn2CCN1CCO [Compound 139] | 6.0 | 97 | 126 | 6.8 | > 10000 | 100 |  |
|  | 5.0 | CC(C)c1ccc(C(C)Oc2ccc(-c3c(-c4ccncc4)nn4c3C(=O)N(CCO)CC4)cc2)cc1 (stereo not drawn) [Compound 144] | 5.7 | 148 | 1260 | 6.3 |  |  | > 10000 |
|  |  | CC(C)c1ccc(C(CN)Oc2ccc(-c3c(-c4ccncc4)nn4c3C(=O)NCC4)cc2)cc1 (stereo not drawn) [Compound 147] | 6.7 | 178 | 3980 | 5.4 | 3980 | 3980 |  |
|  |  | CC(C)c1ccc(CC(=O)c2ccc(-c3c(-c4ccncc4)nn4c3C(=O)NCC4)cc2)cc1 [Compound 148] | 5.9 | 259 | 6310 | 5.5 | > 10000 | 1580 |  |
|  |  | CC(C)c1ccc(COc2ccc(-c3c(-c4ccncc4F)nn4c3C(=O)NCC4)c(F)c2)cc1 [Compound 152] | 8.1 | 262 | 10 | 8.0 | > 10000 | 63.1 |  |
|  |  | CC(C)c1ccc(COc2ccc(-c3c(-c4ccncc4C#N)nn4c3C(=O)NCC4)cc2)cc1 [Compound 153] | 6.8 | 225 | 39.8 | 7.5 | > 10000 | 316 |  |
|  |  | CC(C)c1ccc(COc2ccc(-c3c(-c4ccncc4Cl)nn4c3C(=O)NCC4)cc2)cc1 [Compound 154] | 7.1 | 207 | 100 | 6.9 | > 10000 | 316 |  |
|  |  | CC(C)c1ccc(COc2ccc(-c3c(-c4ccnc5[nH]ccc45)nn4c3C(=O)NCC4)cc2)cc1 [Compound 155] | 7.5 | 266 | 31.6 | 7.8 | > 10000 | 79.4 |  |
| 20 |  | CC(C)c1ccc(COc2ccc(-c3c(-c4ccnc5[nH]ccc45)nn4c3C(=O)N(CCO)CC4)cc2)cc1 [Compound 156] | 7.0 | 219 | 63.1 | 8.0 |  |  | > 10000 |
| 316 |  | CC(C)c1ccc(COc2ccc(-c3c(-c4ccncn4)nn4c3C(=O)N(CC(O)CO)CC4)cc2)cc1 (stereo not drawn) [Compound 161] | 6.7 | 209 | 50.1 | 7.1 |  |  | > 10000 |
|  |  | O=C1c2c(-c3ccc(OCc4ccc(C5CC5)cc4)cc3)c(-c3ccncn3)nn2CCN1CCO [Compound 167] | 6.2 | 170 | 126 | 7.2 | > 10000 | 501 |  |
|  |  | CC(C)c1ccc(COc2ccc(-c3c(-c4ccncc4)nn4c3CN(CC(=O)NCCO)CC4)cc2)cc1 [Compound 175] | 6.8 | 189 | 100 | 6.9 | 5010 | 398 |  |
| 79.4 |  | CC(C)c1ccc(COc2ccc(-c3c(-c4ccncc4)nn4c3CN(CCO)CC4)cc2)cc1 [Compound 176] | 7.1 | 150 | 158 | 6.9 |  |  | > 10000 |
| 398 |  | CC(C)c1ccc(COc2ccc(-c3c(-c4ccncc4)nn4c3CN(CC(=O)N(C)C)CC4)cc2)cc1 [Compound 177] | 6.6 | 95 | 200 | 6.9 |  |  | > 10000 |
| 501 |  | CC(O)CN1CCn2nc(-c3ccncc3)c(-c3ccc(OCc4ccc(C(C)C)cc4)cc3)c2C1 (stereo not drawn) [Compound 191] | 7.0 | 148 | 158 | 6.9 |  |  | > 10000 |
